Here are results for seven compounds from patent publication EP3122861B1, “LIQUID DETERGENT COMPOSITIONS COMPRISING AN ALPHA-AMYLASE” (priority 2014, dated 2015).

Assay [1] can be described thus: Assay for measurement of free calcium ions (calcium ion selective electrode). Type of assay: physicochemical. Particulars: pH 8.0, 49 mM EPPS buffer, 80 mM potassium chloride, 21 °C; for chelator concentrations necessary to reduce the concentration of free calcium ions from 2.0 mM to 0.10 mM: by interpolation. The protocol: The following assay may be used for the measurement of free calcium ions in solution, and thus for the determination of chelating agents (chelants) ability to reduce the concentration of free calcium ions (Ca2+) from e.g. 2.0 mM to 0.10 mM at pH 8.
Various amounts of chelants are added to a solution of 2.0 mM Ca2+ and the free Ca2+ concentration is determined by using a Calcium Ion Selective Electrode at fixed pH and temperature. The concentration of chelant necessary to reduce the concentration of free calcium from 2.0 mM to 0.10 mM can be determined from a plot of the free calcium concentration measured versus the concentration of chelant. In the present assay the concentration of chelant necessary to reduce the concentration of free calcium from 2.0 mM to 0.10 mM is measured at pH 8, at 21°C, in potassium chloride and 49 mM EPPS.
Electrolyte solution: 4 M potassium chloride in ultrapure water (Milli-Q water). pH 8 buffer: 50 mM EPPS (4-(2-Hydroxyethyl)piperazine-1-propanesulfonic acid) adjusted to pH 8.0 using minimum amounts of 1 N sodium hydroxide. Calcium stock solution: 25 mM Ca2+ in pH 8 buffer, made from CaCl2.2H2O. Chelant stock solution: 15 mM chelant (on a 100 % dry chelator basis) in pH 8 buffer, re-adjusted to pH 8.0 using minimum amounts of 1 M NaOH or 1 M HCl.
Calcium Ion Selective Electrode from Thermo Scientific (cat. No. 9720BNWP) calibrated against a Calcium chloride standard solution. The electrode is calibrated as described by the guidelines following the electrode.
A series of vials are prepared, each containing 4 mL of the calcium stock solution (final concentration 2.0 mM), 1 mL electrolyte solution (final concentration 80 mM potassium chloride), chelant stock solution in various amounts (0 - 45 mL) and using the pH 8 buffer for adjusting the total volume to 50 mL. The final concentration of EPPS in the assay is 49 mM. After mixing, the concentration of free Ca2+ is measured by the calcium electrode. The free calcium concentration should be determined at a sufficient number of different chelant concentrations for each chelant tested, ensuring that the data set covers the entire range from 2.0 mM free calcium ions to a value below 0.10 mM or the final chelant concentration in the assay is higher than 10.0 mM. A suitable number of data points are 8 or more. The chelant concentration required to lower the initial 2.0 mM free calcium ions to 0.10 mM is obtained from a plot of the measured free calcium ion concentration versus chelator concentration by interpolation.
The solutions are equilibrated to the desired temperature, which in the present assay is 21°C.
Chelating agents (chelants) may be ranked by their ability to reduce the concentration of free calcium ions (Ca2+) from 2.0 mM to 0.10 mM at pH 8 developed from a method described by M.K.Nagarajan et al., JAOCS, Vol. 61, no. 9 (September 1984), pp. 1475-1478. The assay described above under "Materials and Methods" for measuring of free calcium ions was used. Accordingly, the concentration of chelant necessary to reduce the water hardness from 2.0 mM to 0.10 mM was determined as described above. The experiment was carried out with the pH 8 buffer at 21 °C. Table 12.1: Concentration of free Ca2+ determined in a mixture of 2.0 mM Ca2+ and various amounts of chelating agent at pH 8.
A number of chelants were characterized using this assay, and the chelator concentrations necessary to reduce the concentration of free calcium ions from 2.0 mM to 0.10 mM at pH 8.0 in 49 mM EPPS buffer and 80 mM potassium chloride are shown below in Table 12.2. This table can thus also be used for comparing the capabilities of the chelating agents for reducing the concentration of free calcium ions. Table 12.2

The nature of assay [2]: Determination of log K by ITC (isothermal titration calorimetry). Particulars: binding constant of chelator and calcium ions, pH 10. The source says:
Chelating agents can also be characterized by the binding constant of the chelating agent (chelator) and calcium ions. This constant can be determined by ITC (isothermal titration calorimetry) as described by AD Nielsen, CC Fuglsang and […], Analytical Biochemistry Vol. 314 (2003) page 227-234 and T Wiseman, S Williston, JF Brandts and L-N Lin, Analytical Biochemistry Vol. 179 (1989) page 131-137. All glassware and plastic bottles used are washed with a 1 % (w/w) EDTA solution and subsequently rinsed thoroughly in Chelex 100 treated ultrapure water (Milli-Q water). Solutions are stored in plastic bottles and kept at 5°C until use. […] • 125 μM chelant in 20 mM HEPES, pH 8 or 125 μM chelant in 20 mM glycine, pH 10 • 4 mM CaCl2 in 20 mM HEPES, pH 8 or 4 mM CaCl2 in 20 mM glycine, pH 10 • Ultrapure water (Milli-Q water) […] All solutions are degassed by stirring under vacuum before the experiments. INSTRUMENT: MCS-ITC (MicroCal Inc., Northampton, MA, USA) The reference cell is filled with ultrapure water (Milli-Q water). The sample cell is filled with the chelant solution at the selected pH and the syringe is filled with the calcium solution at the selected pH. The solutions are equilibrated to the desired temperature, e.g. 19°C. […] The obtained signals from the ITC are then integrated using the Origin software supplied by MicroCal Inc. To obtain the binding isotherms, regression routines are made using the same software package. […] Presently preferred is the "OneSites" model which gives the best fit for most of the commonly used chelating agents, i.e. the residuals are evenly distributed around zero. […] Alternatively, the chelating agents can be characterized by the binding constant of the chelating agent (chelator) and calcium ions. This constant can be determined by ITC (isothermal titration calorimetry) as described by AD Nielsen, CC Fuglsang and […], Analytical Biochemistry Vol. 314 (2003) page 227-234 and T Wiseman, S Williston, JF Brandts and L-N Lin, Analytical Biochemistry Vol. 179 (1989) page 131-137. The procedure for the determination of log K is described in detail above under "Materials and Methods". Using this procedure for determination of log K, the following log K values for several chelating agents were determined at pH 10 (Table 12.3). Table 12.3
For orientation: ITC needs no label: the signal is the heat of the interaction.

SMILES strings stand for the structures.

Turning to `O=C(O)CC(O)(CC(=O)O)C(=O)O` [Citrate], in assay [1], the “chelator concentration to reduce free calcium ions from 2.0 mM to 0.10 mM, Relative to citrate” value came out at 1.00 and the “chelator concentrations necessary to reduce the concentration of free calcium ions from 2.0 mM to 0.10 mM” value is listed as 8.36 mM. For the same compound, in assay [2], the “Log K” value came to 3.
As to `O=P(O)(O)CN(CCN(CP(=O)(O)O)CP(=O)(O)O)CCN(CP(=O)(O)O)CP(=O)(O)O` [DTMPA, diethylenetriaminepenta(methylene-phosphonic acid)], in assay [1], the “chelator concentration to reduce free calcium ions from 2.0 mM to 0.10 mM, Relative to citrate” value is listed as 0.25 and the “chelator concentrations necessary to reduce the concentration of free calcium ions from 2.0 mM to 0.10 mM” value amounted to 1.17 mM.
Take `O=C(O)CN(CCN(CC(=O)O)CC(=O)O)CCN(CC(=O)O)CC(=O)O` [DTPA, diethylenetriaminepentaacetic acid]: in assay [1], the “chelator concentration to reduce free calcium ions from 2.0 mM to 0.10 mM, Relative to citrate” value is recorded as 0.24 and the “chelator concentrations necessary to reduce the concentration of free calcium ions from 2.0 mM to 0.10 mM” value came to 1.87 mM. Besides, the “Log K” value in assay [2] was found to be 7.
For `O=C(O)CN(CCN(CC(=O)O)CC(=O)O)CC(=O)O` [EDTA, ethylene diamine tetraacetate], in that order: 0.21, 1.90 mM and 8.
Regarding `O=C(O)CN(CCOCCOCCN(CC(=O)O)CC(=O)O)CC(=O)O` [EGTA, ethylene glycol tetraacetic acid], in assay [1], the “chelator concentration to reduce free calcium ions from 2.0 mM to 0.10 mM, Relative to citrate” value was 0.33 and the “chelator concentrations necessary to reduce the concentration of free calcium ions from 2.0 mM to 0.10 mM” value was found to be 2.60 mM. Besides, the “Log K” value in assay [2] came to 9.
In the same order, the values of `CC(O)(P(=O)(O)O)P(=O)(O)O` [HEDP, 1-Hydroxyethylidene-1,1-Diphosphonic Acid] are 0.20, 1.60 mM and 6.
Take `C[C@@H](C(=O)O)N(CC(=O)O)CC(=O)O` [MGDA, methylglycinediacetic acid or N,N'-bis(carboxymethyl)alanine]: in assay [1], the “chelator concentration to reduce free calcium ions from 2.0 mM to 0.10 mM, Relative to citrate” value worked out at 0.33 and the “chelator concentrations necessary to reduce the concentration of free calcium ions from 2.0 mM to 0.10 mM” value was found to be 2.56 mM. Moreover, in assay [2], the “Log K” value is listed as 2.56.
